Source: patent US20220106304A1, “Transcription Factor BRN2 Inhibitory Compounds as Therapeutics and Methods for Their Use” (The University of British Columbia, priority 2018, published 2022)

Key:
[1] = target: T1, BRN2 (Homo sapiens, UniProt P20265); experiment: cell-based; conditions: negative = activation; for inhibition at 10 µM: read-out: % BRN2 Inhibition (10 μM), 10 μM compound, 24 hours, 42D^ENZR cells stably expressing BRN2-luciferase reporter; for inhibition at 30 µM: read-out: % BRN2 Inhibition (30 μM), 30 μM compound, 24 hours, 42D^ENZR cells stably expressing BRN2-luciferase reporter
T1 sequence (P20265 1-443): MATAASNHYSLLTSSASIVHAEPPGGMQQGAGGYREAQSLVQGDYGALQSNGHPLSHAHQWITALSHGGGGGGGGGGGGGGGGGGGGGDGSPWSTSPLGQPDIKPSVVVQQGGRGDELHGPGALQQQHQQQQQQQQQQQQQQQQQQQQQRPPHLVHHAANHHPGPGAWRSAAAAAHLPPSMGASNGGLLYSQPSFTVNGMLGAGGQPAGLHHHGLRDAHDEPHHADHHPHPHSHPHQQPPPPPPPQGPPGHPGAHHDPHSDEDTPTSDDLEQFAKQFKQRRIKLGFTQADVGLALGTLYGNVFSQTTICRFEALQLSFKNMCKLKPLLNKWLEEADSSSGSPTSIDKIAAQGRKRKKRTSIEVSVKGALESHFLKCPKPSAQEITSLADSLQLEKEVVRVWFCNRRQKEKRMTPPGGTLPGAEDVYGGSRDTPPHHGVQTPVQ

[2] = tested on: 42D^ENZR cells; experiment: Cell proliferation (crystal violet), BRN2 expressing 42D^ENZR cells; format: cell-based; conditions: 42D cells, approximately 72 hours
Experimental: Plate 42DENZR (˜7000 cells per well) and 16D^CRPC (˜5000 cells per well) cells in 96 well plate with a volume of 100 μL per well. • 2. Next day 1 mL aliquots of media are combined with 3× the desired concentration of compounds. The aliquots are vortexed and 50 μL of each 3× concentration is added to the 100 μL of media in each well to give the ix desired concentration.
The following are the desired concentrations:
0, 10 nM, 100 nM, 500 nM, 1 μM, 2.5 μM, 5 μM, 10 μM, 15 μM, […], 30 μM. • 3. Approximately 72 hours later, 17 μL of 10% Glutaraldehyde is added to each well and plates are placed on a shaker for 20-30 minutes. • 4. Media is washed off the fixed cells by slow submersion in a container of water. Then the water is removed by tapping the plate upside down. • 5. 75 μL of Crystal Violet™ solution is added into the 96 well plates and placed on a shaker for ˜30 minutes. • 6. Media is washed off the fixed cells by repeated slow submersion in a container of water and the plates are allowed to dry over-night. • 7. Next day, 75 μL of Sorensen Solution is accurately pipetted into each well. The plates placed on a shaker for ˜30 minutes. • 8. Absorbance is measured in the plate at 590 nm.

[3] = Liver microsome metabolic stability, HLM; format: in vitro ADME; conditions: HLM (first of two values), 1 μM compound, 0.25 mg/mL protein
Experimental: Potassium phosphate buffer (Kphos) was prepared by adding 0.647 g potassium phosphate monobasic (KH2PO4) and 3.527 g potassium phosphate dibasic ([…]) to 400 mL of Milli-Q water. pH of the buffer was adjusted to 7.4 and volume was made up to 500 mL.
Microsomes (20 mg/mL) were diluted in KH2PO4 buffer to prepare a concentration of 0.357 mg/mL.
Stock solutions of BRN2 inhibitors were prepared in DMSO at a concentration of 1 mM
A stock solution of 3.33 mM NADPH (3.33×) was prepared by dissolving appropriate amount of NADPH in KH2PO4 buffer.
Total Incubation volume: 100 μL
Compound concentration: 1 μM
Protein Concentration: 0.25 mg/mL
An 1120 μL aliquot of Kphos buffer (50 mM, pH 7.4) containing liver microsomes (0.357 mg/mL) were added to individual 2 mL tubes (final concentration 0.25 mg/mL). Test compounds (1 mM) and positive controls were directly spiked into respective tubes to prepare a concentration of 1.428 μM (final concentration 1 μM). From the above mix, 70 μL was added to individual wells of 96 well reaction plates and pre-incubated in a 37° C. water bath for 5 min. All the reactions were initiated by adding 30 μL of 3.33 mM NADPH (final concentration 1 mM). Reactions without NADPH and buffer controls (minus NADPH) at 0 min and 60 min were also incubated to rule out non-NADPH metabolism or chemical instability in the incubation buffer. All reactions were terminated using 100 μL of ice-cold acetonitrile containing internal standard at 0, 5, 15, 30 and 60 min. The plates were centrifuged at 4000 RPM for 15 min and 100 μL aliquots were submitted for analysis by LC-MS/MS.
Samples were monitored for parent compounds disappearance in MRM mode using LC-MS/MS.
The percent remaining of test compounds and positive control in each sample was determined by considering peak area ratio in the 0 minute sample as 100%. The Half-life of compounds in microsomes is calculated by formula:
Half-life (t½) (min)=0.693/k, where k is gradient of line determined from plot of peak area ratio (compound peak area/internal standard peak area) against time.
In vitro intrinsic clearance (CL'int) (units in mL/min/kg) was calculated using the formula.
[formula] • For liver microsomes, scaling factor used was 45 mg microsomal protein per gm liver. • Indicates liver weight (gm) which varies species wise. For mice the liver weights are 90 gm.
Where data is not available “na” is inserted.

SMILES | inhibition at 10 µM [1] | inhibition at 30 µM [1] | IC50 [2] | Met Stab % (60 mins HLM/MLM) ([3]; percent remaining at 60 min, 1 mM NADPH) | half-life at 1 µM ([3]; human, liver microsomes, pH 7.4, read-out: T1/2 in (mins HLM/MLM))
Clc1cc2cc(-c3csc(-c4ccc[nH]4)n3)oc2cc1Cl [VPC-18-142] | 29.1% | 53.6% | 2500 nM | – | –
FC(F)(F)c1ccc2cc(-c3csc(-c4ccco4)n3)oc2c1 [VPC-18-51, 2-(Furan-2-yl)-4-(6-(trifluoromethyl)benzofuran-2-yl)thiazole] | 62.5% | 71.4% | – | 42% | 45 min
